In assay [1] the test system is GNP proliferation / cerebellum. Briefly: CK2 inhibition in developing mouse (cerebellar development). The format is in vivo. The conditions noted are these: mice injected with TBB between P3-P7 (30 mg/kg IP bid). The procedure:
The role of CK2 in cerebellar development was next investigated by injecting mice with the CK2 inhibitor TBB between P3-P7 (FIG. 2e).
Math1/nGFPtransgenic mice^8 were treated with DMSO or TBB (30 mg/kg IP bid) (EMD 218697) from […] then sacrificed 6 h following their final treatment. Brains were dissected, fixed in 4% PFA overnight then transferred into 20% sucrose for 24 h. Sections were mounted in O.C.T and sectioned at 20 μm then air-dried for 20 min prior to storing at −20° C. for up to 2 months. Sections were blocked in 0.2% triton X-100 and 2% goat serum diluted in sterile PBS for 1 h at RT. Primary antibodies used were: anti-NeuN Ab (1:200, COT: 2459079, EMD Millipore), anti-Tag1 Ab (1:100, antibody derived in the Scott lab) and TUNEL staining as per manufacturers instructions (Roche In situ Cell Death Detection Kit, cat. no. 1 684 809). All sections were incubated in primary antibody overnight at 4° C. and counter-stained with Hoechst33258 (final concentration 1 μl/ml in PBS) at RT for 10 min. Images were taken on a Leica TCS SP8 confocal microscope. Images were randomized and all measurements (length, width, Atoh-1, Tag1, TUNNEL staining) were performed by a blinded collaborator. Cerebellar folia length was compared between matched sections of control and treated mice by measuring the maximal length from the mid-base to the tip of the culmun (lobule 4/5). Culmen width was measured […] from the base of the folia between lobules 5 and 6. Prism statistical analysis software was used (GraphPad Software, CA) to calculate significance as determined by two-tailed T-tests.

For assay [2], the system named is Ptch+/−; Tpr53−/−; SmoD477G MB flank allografts. Briefly: Flank allograft study, SMO inhibitor-resistant MB. Format: in vivo, mouse. The procedure: (§1) In vivo efficacy studies were performed in accordance with protocols approved by the Institutional Animal Care and Use Committee at Stanford University. SmoWT-MB and Smo[…]-MB cells isolated from either parental SmoWT or Smo[…] mouse Ptch^+/-; p53^-/- MB hind-flank allografts were kindly provided by Charles Rudin (Memorial Sloan-Kettering Cancer Center). Ptch+/-; Tpr53-/-, or, Ptch+/-; Tpr53-/-; Smo[…] MB cells were mixed 1:1 with matrigel and 10^7 cells were injected into both flanks of a Nu/Nu mouse. Once tumors reached 225-275 mm^3, mice were randomized to treatment vs. control groups. Treatment groups received 30 mg/kg IP BID of TBB (reconstituted in DMSO at 50 ug/uL), or 37.5 mg/kg IP BID of GDC-0449 (reconstituted in DMSO at 62.5 ug/uL). Control mice were treated with an equivalent volume of DMSO. Corn oil was used in all groups to a total volume of 180 uL/injection and all doses were given with a 28 g insulin syringe. Tumors were measured and mice were weighed daily. Once tumors reached 1.5 cm^2 or met institutional euthanasia criteria, mice were sacrificed and tumors were harvested. Growth curves were generated using GraphPad Prism and significance was measured by two-way ANOVA.

In assay [3] the test system is Hh signaling in NIH 3T3 cells exposed to Shh. Briefly: RT-qPCR of Hh target transcripts in Shh-stimulated NIH 3T3 cells. The format is cell-based, mouse. The procedure: (§2) NIH3T3s or SUFU−/− MEFs were plated in 6 well plates at 400,000 cells/well in 10% FBS media constituted of DMEM (Invitrogen11960-069) supplemented with 10% FBS (Hyclone Labs SH30070.02), pen/strep (Life Technologies 15140-122), sodium pyruvate (Invitrogen 11360-070) and glutamax (Invitrogen 35050-061). Cells were then starved in 0.5% FBS for 24 h prior to treatment with 25% ShhN conditioned media in 0.5% FBS+/− drug treatment. GliΔN were treated 48 h post transfection. Unless otherwise stated, all treatments were performed for 6 h. Cell lysis and RNA extraction was performed using Qiashredder homogenizers (Qiagen 79654) and RNEasy mini kits (qiagen 74104) as per manufacturer's instructions. RNA was quantified on a nanodrop spectrophotometer (nanoddrop technologies ND-2000C). Transcript quantification was performed using a TaqMan RNA-to-Ct 1-Step Kit (Life technologies, 4392656) and the Applied Biosystems 7500 RT-PCR system as per the manufacturer's instructions. All primers were commercially available TaqMan® Gene Expression Assay probes purchased from Life Technologies (csnk2a1: Mm00786779_s1, csnk2a2: Mm01243455_m1, csnk2b: Mm00487216_m1, Gli1: Mm00494654_m1, Gli2: Mm.273292, Ccnd1: Mm.273049, Ptch: Mm00436047_m1).

Assay [4] concerns Ptch+/−; Trp53−/− MB flank allografts. Briefly: Flank allograft study, Ptch+/−; Trp53−/− MB. The format is in vivo, mouse. The settings on record: TBB 30 mg/kg IP BID; effect as early as 3 days after initiating treatment; vs vehicle control. The procedure:
as §1

Assay [5] relates to Hh signaling in NIH 3T3s stimulated with SAG. Briefly: RT-qPCR of Gli1 in NIH 3T3s stimulated with SAG (epistasis study). The format is cell-based, mouse. The settings on record: NIH 3T3s stimulated with SAG; dose-responsive. The method, then: Epistasis studies were next performed to determine where in the hedgehog pathway CK2 acts. The effect of TBB was examined: (i) in NIH 3T3s stimulated with SAG, a SMO agonist, (ii) in Sufu−/− mouse embryonic fibroblasts (MEF), and (iii) in NIH 3T3 cells overexpressing GLI2 (FIG. 3d-3f).
as §2, with “All primers were commercially available TaqMan® Gene Expression Assay probes purchased from Life Technologies (csnk2a1: Mm00786779_s1, csnk2a2: Mm01243455_m1, csnk2b: Mm00487216_m1, Gli1: Mm00494654_m1, Gli2: Mm.273292, Ccnd1: Mm.273049, Ptch: Mm00436047_m1).” left out

Where [6] appears, read: NIH 3T3's following Hh stimulation.

Entries after “also recorded” stand apart in the source; their conditions may differ.

For `Brc1c(Br)c(Br)c2[nH]nnc2c1Br` [TBB, 4,5,6,7-tetrabromo-2H-benzotriazole], in assay [1], the GNP-dependent foliary width result is given as “decrease”, the apoptosis result is recorded as “no significant change”, the cerebellar size entry is “decrease” and the foliary length entry is “no significant change”. In addition, in assay [1], the “number of ATOH-1 positive proliferating GNPs” value is listed as “decrease” and the rate of differentiation result is listed as “no significant change”. Moreover, the “tumor growth of SmoD477G MB flank allografts” value in assay [2] (TBB 30 mg/kg IP BID or GDC-0449 37.5 mg/kg IP BID vs vehicle control) is reported as “near-complete cessation of tumor growth; also recorded: significant response”. Moreover, the “BrdU incorporation in flank allografts” value in assay [2] (following TBB administration, relative to GDC-0449 and control treated mouse) is recorded as “Decreased”. Further, in assay [3] (setting [6]), the Gli2 transcript levels entry is listed as “effective at decreasing” and the Ptch transcript levels result was “effective at decreasing”. Besides, the “Gli1 mRNA levels” value in assay [3] (SHH ligand-induced NIH 3T3 cells, as early as 4 h post exposure) is on record as “inhibited; also recorded: dramatic decrease; also recorded: loss of Gli1 induction”. Moreover, the “MB flank allograft growth” value in assay [4] is “significant inhibition; also recorded: decreased growth”. Besides, in assay [5], the “Gli1 mRNA levels (effect of inhibitor)” value is “substantially decreased; also recorded: dose dependent loss of Gli1 expression”.

Source of the values: patent US10213449B2, “Compositions and methods for treating medulloblastoma” (The Board of Trustees of the Leland Stanford Junior …, priority 2016, dated 2019).
